This is an account of results in US8409603B2, “Compositions and methods for tissue engineering, tissue regeneration and wound healing” (University of South Carolina, priority 2009, dated 2013).

The assay deals with lens epithelial cells. Nature of the assay: Toroid (ring) formation by cells added onto polymerized collagen gel. The class given is cell-based. The settings on record: addition to the culture fluid of 3-30 ng. The protocol: FIG. 1 illustrates examples of toroids generated from EMT-primed lens epithelial cells; a-c) a control series of 3 toroids generated in regular media, d-f) a control series of 3 toroids generated in media containing a control peptide and g-h) a series of 3 toroids generated in media containing a an ACT1 peptide in combination with Tgfb1.
In a variation on this protocol, cells were added onto an already polymerized gel and the gel was detached after 24 hours of culture. Following a subsequent 24 hours it was noted that quite unlike what was observed when cells were pre-mixed into the gel, cells added post-polymerization always formed into uniform circular rings of repeatable diameter (FIG. 1b). […] Confocal microscopy of rhodamine-phalloidin and nuclear-DAPI stained gels indicated a two-phase structure with cells undergoing recruitment at the outer rim arranging in radial spoke-like arrays (FIG. 1e), whereas cells in on the inner rim organized into a contractile ring (FIG. 1f). […] This experiment was repeated with REC cells (Wada A M, Smith T K, Osler M E, Reese D E, Bader D M. Epicardial/Mesothelial cell line retains vasculogenic potential of embryonic epicardium. Circ Res. 2003 Mar. 21; 92(5):525-31. Epub 2003 Feb. 6, incorporated by reference herein), a rat […] with similar effect. […]

Consider TGF-b, for which the “ring size of toroid” value was “predictably altered”.
